Source: patent US4293489A, “Derivatives of A-30912A nucleus” (Eli Lilly and Company, priority 1980, dated 1981)
Starred links: 1 amine or outer side, 2 acyl side, 3 side chain; linkers in the order of their positions; H or OH if unused. Positions of bridges follow the written chain, without caps; N, C: chain ends. Non-standard residues stand in square brackets, D forms with d. Residues, ends and D or L forms follow the SMILES beside them. *: point of attachment. Orn(4R-OH,5R-OH) = O=C([C@H](C[C@@H](O)[C@@H](O)N[*:3])N[*:1])[*:2]; hTyr(3S-OH,4S-OH) = N[C@H](C(=O)O)[C@H](O)[C@@H](O)c1ccc(O)cc1; Benzoyl(4-OC10H21) = CCCCCCCCCCOc1ccc(C(=O)*)cc1; Pro(3S-OH,4S-Me) = C[C@H]1CN[C@H](C(=O)O)[C@H]1O; Benzoyl(4-octyloxy) = CCCCCCCCOc1ccc(C(=O)*)cc1; X4 = CCCCCCCCCCS(=O)(=O)c1ccc(C(=O)*)cc1; X23 = CCCCCCCCS(=O)(=O)c1ccc(C(=O)*)cc1; X22 = CCCCCCCCCCCCOc1ccc(CCC(=O)*)cc1; X25 = CCCCCCCCCCOc1ccc(OCC(=O)*)cc1; X1 = CCCCCCCCCCCCSc1ccc(C(=O)*)cc1; X21 = CCCCCCCCOc1ccc(CCC(=O)*)cc1; Hyp = O=C(O)[C@@H]1C[C@@H](O)CN1; X29 = CCCCCCCOc1ccc(CCC(=O)*)cc1; X6 = CCCCCCCCCCSc1ccc(C(=O)*)cc1; X30 = CCCCCCCCOc1ccc(C(=O)*)cn1; X26 = CCCCCOc1ccc(CCC(=O)*)cc1; X7 = CCCCCCCCSc1ccc(C(=O)*)cc1

How the values were obtained:
[1] = test system: Trychophyton mentagrophyes #6; test: Agar plate disc diffusion test, MIC per disc; type: cell-based, Trichophyton mentagrophytes; settings: 0.1M sodium borate, pH 7.5, 24 hours, 30° C., * measurable zones with regrowth of organism around disc
Experimental: (§1) Tables 10 and 11 give the results of the testing in vitro of the compounds of Examples 3 and 4 by agar-plate disc-diffusion methods. In Table 10 activity is measured by the size (diameter in mm) of the observed zone of inhibition of the microorganism produced by the test compound. In Table 11, activity is measured by the minimal inhibitory concentration (MIC) of the substance (μg/disc) required to inhibit growth of the test organism. Table 12 gives the results of the testing in vitro of the p-(n-octyloxy)benzoyl derivative of A30912A nucleus [Formula III, R^1 is p-(n-octyloxy)benzoyl] against five strains of Candida albicans by the agar dilution method. In Table 12 activity is measured by the minimal inhibitory concentration (MIC) of the substance (μg/ml) required to inhibit the test organism.
(§2) ^(a) Compounds were suspended in 0.1M sodium borate solution, pH 7.5.
(§3) The compounds were tested at 20 μg/disc at top level and at twofold
(§4) dilutions until end points were reached. Incubation: 24 hours; 30°
*Measurable zones of inhibition with regrowth of organism around disc.

[2] = test system: Candida albicans A-26; test: Agar plate disc diffusion test, MIC per disc; type: cell-based; settings: 0.1M sodium borate, pH 7.5, 24 hours, 30° C.
Experimental: as §1, §2, §3, §4

[3] = test system: Candida albicans A-26; test: Therapeutic activity against Candida albicans A-26 infection in mice, ED50; type: in vivo; settings: Candida albicans, A26, sc, doses 0, 4 and 24 hours post infection, increase in survival time vs control, Reed-Muench, read-out: ED50
Experimental: The results of in vivo tests to evaluate the effectiveness of the compounds of Examples 3 and 4 against an infection caused by Candida albicans A-26 in mice are given in Table 13, where activity is measured by the ED50 value (the dose in mg/kg. required to cure 50% of the test animals). In a separate test, the results of which are also summarized in Table 13, activity is indicated by the lowest dose at which a significant anti-fungal effect is observed. In this test, groups of male albino mice (specific pathogen free), weighing 18 to 20 grams, are infected intravenously with Candida albicans A-26. The animals are X-irradiated 24 hours prior to infection at about 50 roentgens per minute for 8 minutes (400 total dose) to reduce immune responses to the infecting organism. At 0, 4, and 24 hours post infection each group of mice is given graded doses subcutaneously of the test compound as a suspension in 33% polyethylene glycol (PEG)-water. The day of death for each animal is recorded.
*Dosage Schedules: A. = 40, 20, 15 and 10 mg/kg; Dosages given 0, 4, and
24 hours post injection as suspension of test compound in 30% PEGH2
O. Number of mice receiving test compounds at each dosage level: 6 mice
per group. Number of mice in control (untreated) group: 10 mice per group
**As measured by increase in survival time of treated animals versus
control, calculated by method of Reed v Mueuch, American J. Hygiene, 27,

| Structure (SMILES) | MIC [1] [μg/disc] | MIC [2] [μg/disc] | ED50 [3] [mg/kg] |
| --- | --- | --- | --- |
| CCCCCCCCCCOc1ccc(OCC(=O)N[C@H]2C[C@@H](O)[C@@H](O)NC(=O)[C@@H]3[C@@H](O)[C@@H](C)CN3C(=O)[C@H]([C@@H](C)O)NC(=O)[C@H]([C@H](O)[C@@H](O)c3ccc(O)cc3)NC(=O)[C@@H]3C[C@@H](O)CN3C(=O)[C@H]([C@@H](C)O)NC2=O)cc1 (X25-[Orn(4R-OH,5R-OH)]T[Hyp][hTyr(3S-OH,4S-OH)]T[Pro(3S-OH,4S-Me)]; lactam 1-C) | < 0.156 | 0.156 |  |
| CCCCCOc1ccc(CCC(=O)N[C@H]2C[C@@H](O)[C@@H](O)NC(=O)[C@@H]3[C@@H](O)[C@@H](C)CN3C(=O)[C@H]([C@@H](C)O)NC(=O)[C@H]([C@H](O)[C@@H](O)c3ccc(O)cc3)NC(=O)[C@@H]3C[C@@H](O)CN3C(=O)[C@H]([C@@H](C)O)NC2=O)cc1 (X26-[Orn(4R-OH,5R-OH)]T[Hyp][hTyr(3S-OH,4S-OH)]T[Pro(3S-OH,4S-Me)]; lactam 1-C) | 0.156 | 5 |  |
| CCCCCCCOc1ccc(CCC(=O)N[C@H]2C[C@@H](O)[C@@H](O)NC(=O)[C@@H]3[C@@H](O)[C@@H](C)CN3C(=O)[C@H]([C@@H](C)O)NC(=O)[C@H]([C@H](O)[C@@H](O)c3ccc(O)cc3)NC(=O)[C@@H]3C[C@@H](O)CN3C(=O)[C@H]([C@@H](C)O)NC2=O)cc1 (X29-[Orn(4R-OH,5R-OH)]T[Hyp][hTyr(3S-OH,4S-OH)]T[Pro(3S-OH,4S-Me)]; lactam 1-C) | 0.156 | 0.625 |  |
| CCCCCCCCOc1ccc(C(=O)N[C@H]2C[C@@H](O)[C@@H](O)NC(=O)[C@@H]3[C@@H](O)[C@@H](C)CN3C(=O)[C@H]([C@@H](C)O)NC(=O)[C@H]([C@H](O)[C@@H](O)c3ccc(O)cc3)NC(=O)[C@@H]3C[C@@H](O)CN3C(=O)[C@H]([C@@H](C)O)NC2=O)cn1 (X30-[Orn(4R-OH,5R-OH)]T[Hyp][hTyr(3S-OH,4S-OH)]T[Pro(3S-OH,4S-Me)]; lactam 1-C) | 2.5 | 80 |  |
| CCCCCCCCOc1ccc(C(=O)N[C@H]2C[C@@H](O)[C@@H](O)NC(=O)[C@@H]3[C@@H](O)[C@@H](C)CN3C(=O)[C@H]([C@@H](C)O)NC(=O)[C@H]([C@H](O)[C@@H](O)c3ccc(O)cc3)NC(=O)[C@@H]3C[C@@H](O)CN3C(=O)[C@H]([C@@H](C)O)NC2=O)cc1 [drawing 115] ({Benzoyl(4-octyloxy)}-[Orn(4R-OH,5R-OH)]T[Hyp][hTyr(3S-OH,4S-OH)]T[Pro(3S-OH,4S-Me)]; lactam 1-C) | < 0.039 | 0.156 |  |
| CCCCCCCCCCOc1ccc(C(=O)N[C@H]2C[C@@H](O)[C@@H](O)NC(=O)[C@@H]3[C@@H](O)[C@@H](C)CN3C(=O)[C@H]([C@@H](C)O)NC(=O)[C@H]([C@H](O)[C@@H](O)c3ccc(O)cc3)NC(=O)[C@@H]3C[C@@H](O)CN3C(=O)[C@H]([C@@H](C)O)NC2=O)cc1 [drawing 116] ({Benzoyl(4-OC10H21)}-[Orn(4R-OH,5R-OH)]T[Hyp][hTyr(3S-OH,4S-OH)]T[Pro(3S-OH,4S-Me)]; lactam 1-C) | < 0.078 | 0.156 |  |
| CCCCCCCCSc1ccc(C(=O)N[C@H]2C[C@@H](O)[C@@H](O)NC(=O)[C@@H]3[C@@H](O)[C@@H](C)CN3C(=O)[C@H]([C@@H](C)O)NC(=O)[C@H]([C@H](O)[C@@H](O)c3ccc(O)cc3)NC(=O)[C@@H]3C[C@@H](O)CN3C(=O)[C@H]([C@@H](C)O)NC2=O)cc1 [drawing 119] (X7-[Orn(4R-OH,5R-OH)]T[Hyp][hTyr(3S-OH,4S-OH)]T[Pro(3S-OH,4S-Me)]; lactam 1-C) | < 0.039 | 0.312 |  |
| CCCCCCCCCCSc1ccc(C(=O)N[C@H]2C[C@@H](O)[C@@H](O)NC(=O)[C@@H]3[C@@H](O)[C@@H](C)CN3C(=O)[C@H]([C@@H](C)O)NC(=O)[C@H]([C@H](O)[C@@H](O)c3ccc(O)cc3)NC(=O)[C@@H]3C[C@@H](O)CN3C(=O)[C@H]([C@@H](C)O)NC2=O)cc1 [drawing 120] (X6-[Orn(4R-OH,5R-OH)]T[Hyp][hTyr(3S-OH,4S-OH)]T[Pro(3S-OH,4S-Me)]; lactam 1-C) | 0.039 | 0.156 |  |
| CCCCCCCCCCCCSc1ccc(C(=O)N[C@H]2C[C@@H](O)[C@@H](O)NC(=O)[C@@H]3[C@@H](O)[C@@H](C)CN3C(=O)[C@H]([C@@H](C)O)NC(=O)[C@H]([C@H](O)[C@@H](O)c3ccc(O)cc3)NC(=O)[C@@H]3C[C@@H](O)CN3C(=O)[C@H]([C@@H](C)O)NC2=O)cc1 [drawing 121] (X1-[Orn(4R-OH,5R-OH)]T[Hyp][hTyr(3S-OH,4S-OH)]T[Pro(3S-OH,4S-Me)]; lactam 1-C) | < 0.039 | 2.5 |  |
| CCCCCCCCS(=O)(=O)c1ccc(C(=O)N[C@H]2C[C@@H](O)[C@@H](O)NC(=O)[C@@H]3[C@@H](O)[C@@H](C)CN3C(=O)[C@H]([C@@H](C)O)NC(=O)[C@H]([C@H](O)[C@@H](O)c3ccc(O)cc3)NC(=O)[C@@H]3C[C@@H](O)CN3C(=O)[C@H]([C@@H](C)O)NC2=O)cc1 [drawing 123] (X23-[Orn(4R-OH,5R-OH)]T[Hyp][hTyr(3S-OH,4S-OH)]T[Pro(3S-OH,4S-Me)]; lactam 1-C) | 0.312 | 20 |  |
| CCCCCCCCCCS(=O)(=O)c1ccc(C(=O)N[C@H]2C[C@@H](O)[C@@H](O)NC(=O)[C@@H]3[C@@H](O)[C@@H](C)CN3C(=O)[C@H]([C@@H](C)O)NC(=O)[C@H]([C@H](O)[C@@H](O)c3ccc(O)cc3)NC(=O)[C@@H]3C[C@@H](O)CN3C(=O)[C@H]([C@@H](C)O)NC2=O)cc1 [drawing 124] (X4-[Orn(4R-OH,5R-OH)]T[Hyp][hTyr(3S-OH,4S-OH)]T[Pro(3S-OH,4S-Me)]; lactam 1-C) | 0.156 | 2.5 |  |
| CCCCCCCCS(=O)(=O)c1ccc(C(=O)N[C@H]2C[C@@H](O)[C@@H](O)NC(=O)[C@@H]3[C@@H](O)[C@@H](C)CN3C(=O)[C@H]([C@@H](C)O)NC(=O)[C@H]([C@H](O)[C@@H](O)c3ccc(O)cc3)NC(=O)[C@@H]3C[C@@H](O)CN3C(=O)[C@H]([C@@H](C)O)NC2=O)cc1 [drawing 159] (X23-[Orn(4R-OH,5R-OH)]T[Hyp][hTyr(3S-OH,4S-OH)]T[Pro(3S-OH,4S-Me)]; lactam 1-C) |  |  | 57 |
| CCCCCCCCCCS(=O)(=O)c1ccc(C(=O)N[C@H]2C[C@@H](O)[C@@H](O)NC(=O)[C@@H]3[C@@H](O)[C@@H](C)CN3C(=O)[C@H]([C@@H](C)O)NC(=O)[C@H]([C@H](O)[C@@H](O)c3ccc(O)cc3)NC(=O)[C@@H]3C[C@@H](O)CN3C(=O)[C@H]([C@@H](C)O)NC2=O)cc1 [drawing 160] (X4-[Orn(4R-OH,5R-OH)]T[Hyp][hTyr(3S-OH,4S-OH)]T[Pro(3S-OH,4S-Me)]; lactam 1-C) |  |  | 57 |
| CCCCCCCCOc1ccc(CCC(=O)N[C@H]2C[C@@H](O)[C@@H](O)NC(=O)[C@@H]3[C@@H](O)[C@@H](C)CN3C(=O)[C@H]([C@@H](C)O)NC(=O)[C@H]([C@H](O)[C@@H](O)c3ccc(O)cc3)NC(=O)[C@@H]3C[C@@H](O)CN3C(=O)[C@H]([C@@H](C)O)NC2=O)cc1 [drawing 172] (X21-[Orn(4R-OH,5R-OH)]T[Hyp][hTyr(3S-OH,4S-OH)]T[Pro(3S-OH,4S-Me)]; lactam 1-C) |  |  | 4.5 |
| CCCCCCCCCCCCOc1ccc(CCC(=O)N[C@H]2C[C@@H](O)[C@@H](O)NC(=O)[C@@H]3[C@@H](O)[C@@H](C)CN3C(=O)[C@H]([C@@H](C)O)NC(=O)[C@H]([C@H](O)[C@@H](O)c3ccc(O)cc3)NC(=O)[C@@H]3C[C@@H](O)CN3C(=O)[C@H]([C@@H](C)O)NC2=O)cc1 [drawing 173] (X22-[Orn(4R-OH,5R-OH)]T[Hyp][hTyr(3S-OH,4S-OH)]T[Pro(3S-OH,4S-Me)]; lactam 1-C) |  |  | 4.5 |
